# According to ChEMBL document CHEMBL4706545, “Antiproliferative effect of mitochondria-targeting allobetulin 1,2,3-triazolium salt derivatives and their mechanism of inducing apoptosis of cancer cells” (Eur J Med Chem, 2020):
# How the values were obtained:
# HepG2 = experiment: Cytotoxicity against human HepG2 cells assessed as reduction in cell viability incubated for 48 hrs by MTT assay; type: functional, cell-based; settings: HepG2, 48 h
# SGC-7901 = experiment: Cytotoxicity against human SGC-7901 cells assessed as reduction in cell viability incubated for 48 hrs by MTT assay; type: functional, cell-based; settings: SGC-7901, 48 h
# L02 = experiment: Cytotoxicity against human HL7702 cells assessed as reduction in cell viability incubated for 48 hrs by MTT assay; type: ADME, cell-based; settings: L02, 48 h
# ECa-109 cell line = experiment: Cytotoxicity against human ECa-109 cells assessed as reduction in cell viability incubated for 48 hrs by MTT assay; type: functional, cell-based; settings: ECa-109, 48 h
# HeLa = experiment: Cytotoxicity against human HeLa cells assessed as reduction in cell viability incubated for 48 hrs by MTT assay; type: functional, cell-based
SMILES,IC50 (HepG2),IC50 (SGC-7901),IC50 (L02),IC50 (ECa-109 cell line),IC50 (HeLa)
COc1ccc(Cn2nnc3c2C(C)(C)[C@@H]2CC[C@]4(C)[C@H](CC[C@@H]5[C@H]6[C@H]7OC[C@@]6(CCC7(C)C)CC[C@]54C)[C@@]2(C)C3)cc1,13.7 µM,16.9 µM,11.2 µM,17.2 µM,12.7 µM
CC1(C)CC[C@]23CC[C@]4(C)[C@H](CC[C@@H]5[C@@]6(C)Cc7nnn(Cc8cccc(Cl)c8)c7C(C)(C)[C@@H]6CC[C@]54C)[C@H]2[C@H]1OC3,30.7 µM,31.5 µM,26.3 µM,36.5 µM,34.4 µM
C[n+]1nn(Cc2ccccc2)c2c1C[C@]1(C)[C@H]3CC[C@@H]4[C@H]5[C@H]6OC[C@@]5(CCC6(C)C)CC[C@@]4(C)[C@]3(C)CC[C@H]1C2(C)C,2.89 µM,2.83 µM,2 µM,3.29 µM,3.02 µM
COc1ccc(CCn2nnc3c2C(C)(C)[C@@H]2CC[C@]4(C)[C@H](CC[C@@H]5[C@H]6[C@H]7OC[C@@]6(CCC7(C)C)CC[C@]54C)[C@@]2(C)C3)cc1,36.6 µM,45.2 µM,39.3 µM,51.8 µM,42.5 µM
Cc1ccc(Cn2n[n+](C)c3c2C(C)(C)[C@@H]2CC[C@]4(C)[C@H](CC[C@@H]5[C@H]6[C@H]7OC[C@@]6(CCC7(C)C)CC[C@]54C)[C@@]2(C)C3)cc1,2.28 µM,2.16 µM,1.47 µM,2.62 µM,2.21 µM
COC(Cn1nnc2c1C(C)(C)[C@@H]1CC[C@]3(C)[C@H](CC[C@@H]4[C@H]5[C@H]6OC[C@@]5(CCC6(C)C)CC[C@]43C)[C@@]1(C)C2)OC,> 80 µM,> 80 µM,> 80 µM,> 80 µM,> 80 µM
CC1(C)CC[C@]23CC[C@]4(C)[C@H](CC[C@@H]5[C@@]6(C)Cc7nnn(Cc8c(F)cccc8Cl)c7C(C)(C)[C@@H]6CC[C@]54C)[C@H]2[C@H]1OC3,24.3 µM,26.1 µM,19.5 µM,27 µM,23.3 µM
CC1(C)CC[C@]23CC[C@]4(C)[C@H](CC[C@@H]5[C@@]6(C)Cc7nnn(Cc8ccc(C(F)(F)F)cc8)c7C(C)(C)[C@@H]6CC[C@]54C)[C@H]2[C@H]1OC3,28.9 µM,32.2 µM,25.6 µM,33.9 µM,28.5 µM
COc1cccc(CCn2nnc3c2C(C)(C)[C@@H]2CC[C@]4(C)[C@H](CC[C@@H]5[C@H]6[C@H]7OC[C@@]6(CCC7(C)C)CC[C@]54C)[C@@]2(C)C3)c1,31.9 µM,39.8 µM,20.9 µM,25.5 µM,23.6 µM
COc1ccc(Cn2n[n+](C)c3c2C(C)(C)[C@@H]2CC[C@]4(C)[C@H](CC[C@@H]5[C@H]6[C@H]7OC[C@@]6(CCC7(C)C)CC[C@]54C)[C@@]2(C)C3)cc1,2.86 µM,2.01 µM,2.24 µM,2.78 µM,2.48 µM
COc1ccccc1CCn1n[n+](C)c2c1C(C)(C)[C@@H]1CC[C@]3(C)[C@H](CC[C@@H]4[C@H]5[C@H]6OC[C@@]5(CCC6(C)C)CC[C@]43C)[C@@]1(C)C2,1.55 µM,1.24 µM,1.4 µM,1.67 µM,1.67 µM
CCCCCCCCn1nnc2c1C(C)(C)[C@@H]1CC[C@]3(C)[C@H](CC[C@@H]4[C@H]5[C@H]6OC[C@@]5(CCC6(C)C)CC[C@]43C)[C@@]1(C)C2,> 80 µM,> 80 µM,> 80 µM,> 80 µM,> 80 µM
C[n+]1nn(Cc2ccccc2F)c2c1C[C@]1(C)[C@H]3CC[C@@H]4[C@H]5[C@H]6OC[C@@]5(CCC6(C)C)CC[C@@]4(C)[C@]3(C)CC[C@H]1C2(C)C,2.99 µM,2.56 µM,1.68 µM,3.08 µM,2.42 µM
COc1cccc(Cn2nnc3c2C(C)(C)[C@@H]2CC[C@]4(C)[C@H](CC[C@@H]5[C@H]6[C@H]7OC[C@@]6(CCC7(C)C)CC[C@]54C)[C@@]2(C)C3)c1,12.7 µM,12 µM,10.5 µM,10.4 µM,11.2 µM
COc1cc(Cn2n[n+](C)c3c2C(C)(C)[C@@H]2CC[C@]4(C)[C@H](CC[C@@H]5[C@H]6[C@H]7OC[C@@]6(CCC7(C)C)CC[C@]54C)[C@@]2(C)C3)cc(OC)c1OC,3.04 µM,5.56 µM,3.8 µM,3.35 µM,3.8 µM
